# Source: a melting point compilation (Tetko et al.; mined from patent text by program, amines drawn as free bases though some values may be those of a salt)
row,melting point [°C],SMILES
1,> 250,CN(C)CCn1cnc2cnc3ccccc3c21
2,164 to 165,Cc1ccc(CSc2c(O)cc(-c3ccccc3)oc2=O)cc1
3,57 to 58,Nc1cc(C(F)(F)F)cc2c(Cl)ccnc12
4,208 to 210,CC(C)CNc1sc(-c2cc[nH]n2)c2c1C(=O)CC(C)(C)C2
5,193,O=C(NC1Cc2ccc(-c3ccc(F)cc3)cc2C1)c1ccc(F)cc1 (stereo not drawn)
6,97 to 99,COc1ccc(C#N)c(Cl)c1OC(C)=O
7,184 to 188,CCNC(=O)NC1CCCc2sccc21 (stereo not drawn)
8,232,CC(O)c1ccc2c(NCc3ccc(NC(=O)c4ccc(F)cc4)cc3)nc(N(C)C)nc2c1 (stereo not drawn)
9,103 to 104,C=CCNC(=O)ON=C1SCC(=O)N1CC
10,112 to 114,Cn1c(Cl)c(C#N)c2ccccc21
11,91.4,Cc1sc([Si](C)(C)C)cc1C1=C(c2cc([Si](C)(C)C)sc2C)C(F)(F)C(F)(F)C1(F)F
12,182 to 183,CNC(=S)Nc1c(C)cccc1N1CCOCC1
13,116 to 117,COc1ccc(C2(/C=C/c3cccc(C#N)c3)CCC(=O)CC2)cc1OC1CCCC1
14,43 to 46,CS(=O)(=O)NCCCCCC1CCSS1 (stereo not drawn)
15,174 to 176,CCCCOCCOCCOc1ccc(-c2ccc(C(=O)O)cc2)cc1
16,170 to 172,O=C(O)c1ccc(C2OC2C(=O)c2ccccc2)cc1 (stereo not drawn)
17,182 to 184,COc1cc2c(Nc3ccc(Sc4ccccn4)cc3)c(C#N)cnc2cc1N1CCC(N2CCCC2)CC1
18,103,CSc1ccc(-c2nn(Cc3ccccc3)c(=S)cc2-c2ccc(Cl)cc2)cc1
19,124 to 125,COC(=O)Cc1ccc(CN2CCN(C(c3ccccc3)c3ccccc3)CC2)cc1
20,143 to 144,CCOC(=O)CN1C(=O)Nc2cccc(Cl)c2C1C (stereo not drawn)
21,188,Cc1cnc2c(c1)CCCC2=NO
22,208 to 210,COc1ccc(NC(=O)c2ccc(OC)c(C34CC5CC(CC(C5)C3)C4)c2)c([N+](=O)[O-])c1
23,151 to 153,Cc1cc2c(cc1C)SC(CCCBr)C(=O)N2 (stereo not drawn)
24,90 to 92,C=C(F)C(=O)Oc1c(Cl)c(Cl)c(Cl)c(Cl)c1Cl
25,124 to 126,Clc1cccc(OC2CCNc3ncc(-c4ccc(N5CCOCC5)cc4)cc32)c1 (stereo not drawn)

row,melting point [°C],SMILES
1,125 to 126,Cc1c(SCCCSCCO)ccnc1CNc1cnc2ccccc2c1
2,64 to 65,O=C(NO)[C@H]1[C@H](O)CCN1C(=O)c1ccc(OC(F)(F)F)cc1
3,159 to 160,O=C(O)C(=O)c1ccccc1Nc1c(Cl)cccc1Cl
4,176 to 179,CCCOCCOc1ccc(-c2ccc3c(c2)C=C(C(=O)O)CCS3(=O)=O)cc1
5,91 to 92,Cc1cc(C)cc(Oc2[nH]c(=O)[nH]c(=O)c2C(C)C)c1
6,113 to 114,CCC1(C)OC(c2ccc(S(N)(=O)=O)cc2)=C(c2ccc(OC)c(F)c2)C1=O (stereo not drawn)
7,183 to 184,O=C1CCC2(CC3CCC2CC3)C(=O)N1 (stereo not drawn)
8,128 to 132,O=C1c2ccccc2C(=O)N1CCOc1cccc2c1CCC2
9,100 to 102,COC(=O)C(C(C)C)S(=O)(=O)N(C(C)=O)c1nc(OC)cc(OC)n1 (stereo not drawn)
10,118,CN(C1=CC(C)(C)Oc2ccc(OCCCC(F)(F)F)cc21)S(C)(=O)=O
11,79 to 82,CS(=O)(=O)Nc1ccc(/C=C\COCCCCCCNCC(O)c2cc(O)cc(O)c2)cc1 (stereo not drawn)
12,140 to 141,OCCNc1c(Br)cnc2cc(C(F)(F)F)ccc12
13,94 to 95,O=Cc1cccc2ncc(C3CCCCC3)cc12
14,80.6 to 82.9,Cc1cc(C)c(NC(=O)CCCCCl)c(Cl)c1
15,124,O=c1cc(-c2ccccc2)oc2cccc(OCCO)c12
16,132 to 137,CON1C(C)(C)CC(OC(=O)CCc2cc(-n3nc4ccc(Cl)cc4n3)c(O)c(C(C)(C)C)c2)CC1(C)C
17,70 to 72,O=C(Nc1ccc(Br)cn1)C(F)(F)F
18,197 to 200,O=C(c1ccc(NC(=O)C(O)(C(F)(F)F)C(F)(F)F)cc1)c1ccccn1
19,173 to 175,CC(=O)N[C@H](Cc1ccc(C#N)cc1)C(=O)O
20,136 to 138,O=C(NCCCc1ccncc1)N(CCC12CC3CC(CC(C3)C1)C2)C1CCCC1
21,> 275,Cc1ccc(C)c(CNc2cccc(S(=O)(=O)O)c2)c1
22,158 to 162,CCCCCC(C)NC1=NS(=O)(=O)c2sc(Cl)cc2N1 (stereo not drawn)
23,148,COc1ccc(COc2ccc(C(=O)NC[C@@H](C(=O)NO)N3CCN(S(C)(=O)=O)CC3)cc2)cc1
24,208 to 209,Cc1nc(-c2ccc(Br)cc2)n(-c2ccc(S(C)(=O)=O)cc2)n1
25,195 to 200,C=C(CN(C)C)C(O)c1ncc2c(c1O)COC2c1ccc(Cl)cc1 (stereo not drawn)

row,melting point [°C],SMILES
1,130 to 133,N#Cc1cccnc1N1CCN(CC(=O)Nc2cc(C(F)(F)F)ccc2F)CC1
2,204,CN1C(=O)N(c2cc(Cl)cc(Cl)c2)C(=O)[C@]12CN(Cc1ccccc1)C[C@H]2c1ccc(Br)cc1 (relative stereo)
3,169 to 170,CCCC1(COC)CCCSc2cc(/C=C/c3ccc(C(=O)O)cc3)ccc21 (stereo not drawn)
4,93 to 94.4,N#Cc1cc(-c2ccccc2)[nH]c1Sc1ccc2ccccc2c1
5,195 to 196,CCOC(=O)c1sc(S(C)(=O)=O)c2c1CCc1c(Br)nn(C)c1-2
6,119 to 121,Cc1cccc(C2CNCCN2C(=O)N(c2ccccc2)c2ccccc2)c1 (stereo not drawn)
7,229 to 231,CC(C)c1nc2c(N)nc3ccccc3c2n1CCOc1ccccc1
8,32.5 to 50.8,COC(=O)C(NCC(=O)c1ccccc1)C(C)C (racemic)
9,98 to 110,COc1cccc(Cn2c(=O)c3c(N4CCN(C)CC4)cc(Cl)cc3n(Cc3ccccc3)c2=O)c1
10,226,Cn1cc(-c2cc(-c3ccncc3)ccn2)n(-c2ccc(C(C)(C)C#N)cc2)c1=O
11,245 to 247,Cc1c(Cl)cccc1NS(=O)(=O)c1cc(S(=O)(=O)Nc2cccc(Cl)c2C)c2ccccc2c1O
12,107 to 110,Cc1ccc(S(=O)(=O)OCC2Cc3ccc(O)cc3O2)cc1 (stereo not drawn)
13,140 to 141,COC(=O)c1ccc2cc(C(O)c3ccc4c(c3)C3(C)C5(C)CCC(C5)C3(C)O4)ccc2c1 (stereo not drawn)
14,190,CC(C)(C)OC(=O)CN1CCOc2ccc([N+](=O)[O-])cc2C1=O
15,163 to 165,COc1ccc(N2CCN(c3ccc(OC)nc3-c3ccc(N(C)C)cc3)CC2)cc1
16,69 to 70,O=C(Sc1ccccn1)c1ccc(Br)cc1
17,> 300,NC(=NO)c1ccc(-c2n[nH]c3c2Cc2ccccc2-3)cc1
18,107 to 108,CC(C)c1ccc(-c2nn(C)c(=O)c3ccccc23)cc1
19,220 to 223,O=C1c2ccccc2C(=O)N1CC(=O)N1c2ccccc2N(Cc2cccnc2)C(=O)[C@H]2CCC[C@H]21 (relative stereo)
20,236 to 238,O=C(Nc1ccc(Oc2ccc(C(=O)N3CCC(C(=O)N4CCN(Cc5ccc6c(c5)OCO6)CC4)CC3)cc2)nc1)c1ccc(Cl)c(Cl)c1
21,225 to 228,Cn1cc(O)c(=O)c2ccc(Cl)cc21
22,68 to 69,Cc1c(Cl)cc(C(C)(C)C)c(O)c1C(=O)Oc1ccccc1
23,152 to 156,Cc1ccc(Sc2cncc3sc(C=NOCC(N)=O)cc23)cc1
24,> 250,NC(C(=O)O)C(=CF)c1c[nH]c2ccc(O)cc12 (stereo not drawn)
25,296 to 298,Cc1ccc2[nH]c3c(cc(-c4cccc(C(=O)N5CCOCC5)c4)c(=O)n3C)c2c1

row,melting point [°C],SMILES
1,109,OCCc1cccc(Nc2ccc3nc(N[C@@H]4CCc5ccccc54)ccc3c2)c1
2,125,CSCCn1c2ccc(C)cc2c(=O)c2c1cnn2C
3,> 260,Nc1nc(N)nc(C2CCN(Cc3ccccc3)CC2)n1
4,197 to 199,Oc1ccccc1-c1nc(-c2ccccc2O)n(Cc2ccncc2)n1
5,76 to 78,COP(=O)(CC(=O)[C@H](Cc1ccccc1)NC(=O)OC(C)(C)C)OC
6,167,Cc1cc(COc2ccc(C(=O)NC[C@@H](C(=O)NO)N3CCN(Cc4ccc(F)cc4)CC3)cc2)c2ccccc2n1
7,99.5 to 100,CCCOc1cc(C#N)ccc1C(C)=O
8,195 to 196,COc1ccc(-c2c(C(=O)O)oc3cc(OCc4ccc(OCc5ccc6ccccc6n5)cc4)cc(O)c3c2=O)cc1
9,82 to 84,CCOC(=O)CSc1nc(Cl)cc(-c2ccccc2)n1
10,185 to 186,Cc1nnc(-c2ccc3occ(-c4cc(F)ccc4F)c3n2)o1
11,124 to 127,O=c1cccc(-c2ccccn2)[nH]1
12,126 to 127,O=C(O)Cc1cccc(OCCCc2cc(-c3ccc(C(F)(F)F)cc3)no2)c1
13,108 to 109,COC(=O)C1(C)c2ccccc2-c2ccccc21
14,181 to 184,OCC1(c2c[nH]cn2)Cc2ccccc2C1
15,> 300,O=C1C(=O)c2c(nc3ccccn23)-c2cc([N+](=O)[O-])ccc21
16,258 to 262,CCOC(=O)c1c2n(c3cc(Br)c(F)cc3c1=O)CCS2
17,203,COc1ccc(CNc2nc(N3CCC(C(=O)O)CC3)nc3sc(C(F)(F)F)cc23)cc1OC
18,136 to 137,O=C(NCCN1CCN(c2cccc(Cl)c2)CC1)NC12CC3CC(CC(C3)C1)C2
19,190,CC(C)NC(=O)N1CCc2[nH]cnc2C1
20,37.5 to 39,CCC1(C(=O)C(=O)NC(C)(C)C)CC1
21,140 to 141,CCOC(=O)c1cc2c(C(F)(F)F)cc(C=O)cc2n1C
22,112 to 113,CCCSCc1cccc(-c2nc(=O)c3ccccc3s2)n1
23,170 to 172,CCc1ccc2ccc(N)nc2n1
24,84,CCN(CC)C(=O)Oc1nc(-c2ccc(OC)cc2)cc2ccccc12
25,176 to 178,CN1CCN(C(=O)c2cccc3cc[nH]c23)CC1

row,SMILES,melting point [°C]
1,O=C(O)c1ccc(OCCF)cc1,135
2,O=C(Nc1cnccn1)C(Cl)(Cl)Cl,68
3,COc1cccc(OC)c1C(=O)P(=O)(c1ccccc1)c1ccccc1,124 to 126
